{"source": "paper PMC10993414", "about": "“Water Quality Monitoring with the Multiplexed Assay MitoOxTox for Mitochondrial Toxicity, Oxidative Stress Response, and Cytotoxicity in AREc32 Cells” (Environmental Science & Technology, 2024)", "key": {"[1]": {"settings": "ref Cessna et al. 1978; cited from earlier work"}, "[2]": {"system": "mitochondrial membrane potential (MMP) in AREc32 cells", "experiment": "Disruption of mitochondrial membrane potential (m-MPI red/green ratio), MitoOxTox", "settings": "for MMP inhibition activity (in words): MitoOxTox, AREc32"}, "AREc32 cells [3]": {"system": "AREc32 cells", "settings": "for Cytotoxicity Incucyte IC10: human"}, "AREc32 cells [4]": {"system": "AREc32 cells"}, "[5]": {"system": "mitochondrial membrane potential (MMP) in AREc32 cells", "settings": "human"}, "[6]": {"system": "Nrf2-mediated oxidative stress response pathway (ARE) in AREc32 cells"}, "[7]": {"system": "Nrf2-mediated oxidative stress response pathway (ARE) in AREc32 cells", "experiment": "cells", "settings": "Arec32, 24 h, read-out: Oxidative stress response ECIR1.5 (M)"}, "[8]": {"settings": "experimental; ref PhysPropNCCT; cited from earlier work"}, "[9]": {"system": "oxidative stress response in AREc32 cells", "parameters": "method as in Escher et al. 42", "settings": "original AREc32 reporter gene assay; ref Escher et al. 42; cited from earlier work"}, "[10]": {"system": "mitochondrial membrane potential (MMP) in HepG2 cells", "settings": "cited from earlier work; for MMP inhibition activity (in words): Tox21 MMP assay, HepG2"}, "AREc32 cells [11]": {"system": "AREc32 cells", "experiment": "Cytotoxicity with ImageXpress high-content imaging, MitoOxTox", "settings": "AREc32, 24 h exposure"}, "AREc32 cells [12]": {"system": "AREc32 cells", "experiment": "Cytotoxicity (cell confluency) with IncuCyte S3 live cell imaging, MitoOxTox", "settings": "10% reduction in cell viability; AREc32, 24 h exposure"}, "[13]": {"settings": "10% reduction of MMP, AREc32, 24 h exposure"}, "[14]": {"settings": "logarithm of EC10, AREc32, 24 h exposure"}}, "note": "Read-outs that look alike come from different tables or passages of the source."}
{"smiles": "N#Cc1cc(Br)c(O)c(Br)c1", "note": "[Bromoxynil]", "values": [{"measurement": "pKa (Acid)", "setting": "[1]", "value": 4.21}, {"measurement": "MMP inhibition EC10", "setting": "[2]; [13]", "value": 21.9, "unit": "µM"}, {"measurement": "MMP inhibition log(EC10 (M))", "setting": "[2]; [14]", "value": -4.66, "unit": "M"}]}
{"smiles": "O=[N+]([O-])c1ccc(O)c([N+](=O)[O-])c1", "note": "[2,4-Dinitrophenol]", "values": [{"measurement": "Cytotoxicity Incucyte IC10", "setting": "AREc32 cells [3]", "value": 281, "unit": "µM"}, {"measurement": "Cytotoxicity ImageExpress IC10", "setting": "AREc32 cells [4]; human", "value": 426, "unit": "µM"}, {"measurement": "Cytotoxicity ImageExpress log(IC10 (M))", "setting": "AREc32 cells [4]; human", "value": -3.37, "unit": "M"}, {"measurement": "SRcytotoxicity", "setting": "[5]", "value": 35.1}, {"measurement": "activation of the oxidative stress response (in words)", "setting": "[6]; AREc32", "value": "activated"}, {"measurement": "EC (induction ratio 1.5)", "setting": "[7]", "value": 0.000156, "unit": "M"}, {"measurement": "log Kow [L/L]", "setting": "[8]", "value": 1.67, "unit": "L/L"}, {"measurement": "MMP inhibition EC10", "setting": "[2]; [13]", "value": 12.1, "unit": "µM"}, {"measurement": "MMP inhibition log(EC10 (M))", "setting": "[2]; [14]", "value": -4.92, "unit": "M"}]}
{"smiles": "CC(C)(C)c1cc(O)ccc1O", "note": "[tBHQ, tert-butylhydroquinone]", "values": [{"measurement": "ECIR1.5", "setting": "[6]; current study, multiplexed MitoOxTox, AREc32", "value": 3.14, "unit": "µM"}, {"measurement": "ECIR1.5", "setting": "[9]", "value": 1.32, "unit": "µM"}]}
{"smiles": "CCC/C=C/C=C/C(=O)O[C@H]1/C(=C/C(=O)OC)C[C@H]2C[C@H]([C@@H](C)O)OC(=O)C[C@H](O)C[C@@H]3C[C@H](OC(C)=O)C(C)(C)[C@](O)(C[C@@H]4C/C(=C/C(=O)OC)C[C@H](/C=C/C(C)(C)[C@]1(O)O2)O4)O3", "note": "[bryostatin 1]", "values": [{"measurement": "EC50", "setting": "[10]; HepG2 cells, 1 h of exposure, read-out: EC50 (decrease of MMP)", "value": 0.0096, "unit": "µM"}]}
{"smiles": "O=C(Nc1ccccc1-c1ccc(Cl)cc1)c1cccnc1Cl", "note": "[Boscalid]", "values": [{"measurement": "Cytotoxicity Incucyte log(IC10 (M))", "setting": "AREc32 cells [3]", "value": "no cytotoxicity"}, {"measurement": "Cytotoxicity Incucyte IC10", "setting": "AREc32 cells [3]; 24 h", "value": "> 83.2", "unit": "µM"}, {"measurement": "Cytotoxicity ImageExpress log(IC10 (M))", "setting": "AREc32 cells [4]", "value": "no cytotoxicity"}, {"measurement": "Cytotoxicity ImageExpress IC10", "setting": "AREc32 cells [4]; human, 24 h", "value": "> 83.2", "unit": "µM"}, {"measurement": "EC (induction ratio 1.5)", "setting": "[7]", "value": "> 8.32e-05", "unit": "M"}, {"measurement": "log Kow [L/L]", "setting": "[8]", "value": 2.96, "unit": "L/L"}, {"measurement": "MMP inhibition activity (in words)", "setting": "[10]", "value": "inactive"}, {"measurement": "MMP inhibition EC10", "setting": "[2]; [13]", "value": "> 83.2", "unit": "µM"}, {"measurement": "MMP inhibition EC10 (M)", "setting": "[2]; 10% reduction of MMP, AREc32, 24 h exposure, listed as boscalid", "value": "> 8.32 × 10^–5 M"}, {"measurement": "MMP inhibition activity (in words)", "setting": "[2]", "value": "inactive"}, {"measurement": "MMP inhibition log(EC10 (M))", "setting": "[2]; [14]", "value": "no Effect"}]}
{"smiles": "CC(C)(C)c1ccc(CCOc2ncnc3ccccc23)cc1", "note": "[Fenazaquin]", "values": [{"measurement": "SRcytotoxicity", "setting": "[5]", "value": 9356}, {"measurement": "EC (induction ratio 1.5)", "setting": "[7]", "value": "> 0.000314", "unit": "M"}, {"measurement": "log Kow [L/L]", "setting": "[8]", "value": 5.51, "unit": "L/L"}, {"measurement": "MMP inhibition activity (in words)", "setting": "[10]", "value": "only active in the MitoOxTox assay"}, {"measurement": "Cytotoxicity ImageExpress IC10", "setting": "AREc32 cells [11]; 10% reduction in cell viability", "value": 110, "unit": "µM"}, {"measurement": "Cytotoxicity ImageExpress log(IC10 (M))", "setting": "AREc32 cells [11]; logarithm of IC10, Corning plates", "value": -3.96, "unit": "M"}, {"measurement": "Cytotoxicity Incucyte IC10", "setting": "AREc32 cells [12]", "value": 100, "unit": "µM"}, {"measurement": "MMP inhibition EC10", "setting": "[2]; [13]", "value": 0.0118, "unit": "µM"}, {"measurement": "MMP inhibition activity (in words)", "setting": "[2]", "value": "active"}, {"measurement": "MMP inhibition log(EC10 (M))", "setting": "[2]; [14]", "value": -7.93, "unit": "M"}]}
{"smiles": "Oc1c(Cl)c(Cl)c(Cl)c(Cl)c1Cl", "note": "[Pentachlorophenol]", "values": [{"measurement": "Cytotoxicity Incucyte IC10", "setting": "AREc32 cells [3]", "value": 67.9, "unit": "µM"}, {"measurement": "Cytotoxicity ImageExpress IC10", "setting": "AREc32 cells [4]; human", "value": 74.4, "unit": "µM"}, {"measurement": "Cytotoxicity ImageExpress log(IC10 (M))", "setting": "AREc32 cells [4]; human", "value": -4.13, "unit": "M"}, {"measurement": "SRcytotoxicity", "setting": "[5]", "value": 6.6}, {"measurement": "activation of the oxidative stress response (in words)", "setting": "[6]", "value": "activated"}, {"measurement": "SRcytotoxicity (oxidative stress response)", "setting": "[6]; human", "value": 6.6}, {"measurement": "EC (induction ratio 1.5)", "setting": "[7]", "value": "6.91e-05", "unit": "M"}, {"measurement": "MMP inhibition EC10", "setting": "[2]", "value": 11.2, "unit": "µM"}, {"measurement": "MMP inhibition log(EC10 (M))", "setting": "[2]", "value": -4.95, "unit": "M"}]}
